Data set [1] deals with MH-S murine alveolar macrophage line. The data set can be described thus: LDH release cytotoxicity assay, MH-S. The data set is classed as cell-based. To be noted: 18 h. The procedure: (§1) Cytotoxicity assays. WI-L2 human B-lymphocyte line, HAAE-1 human abdominal aortic endothelial line, MH-S murine alveolar macrophage line, and J774A.1 murine tissue macrophage line were obtained from the ATCC. Human aortic endothelial cells (HAEC) and human vascular smooth muscle cells (VSMS) were obtained from Cambrex Bio Science. Jurkat E6-1T-lymphocytes were kindly provided by Dr. J. Kaye (The Scripps Research Institute). Cells were cultured in ATCC-recommended media with 10% fetal calf serum. Cells were incubated in a controlled atmosphere at 37° C., with 5 or 7% CO2. For lactate dehydrogenase (LDH) release assays, adherent cells were harvested either by addition of 0.05% trypsin/EDTA or by scraping. The cells obtained were seeded onto 96-well microtiter plates (25,000 cells/well) and allowed to recover for 24-48 h. […] Cytotoxicity was then determined by measuring lactate dehydrogenase (LDH) release from cells in culture. […] 100% Cytotoxicity was defined as the maximum amount of LDH released by dead cells as shown by trypan blue exclusion, or the highest amount of LDH detected upon lysis of cells by 0.9% Triton X-100. The IC50 values were determined by comparison of the raw duplicate data for concentration versus cytotoxicity (%) to non-linear regression analysis (Hill plot) using Graphpad v3.0 software for Macintosh.
In general terms: LDH in the medium is a marker of cell lysis.

The test system of data set [2] is J774A.1 murine tissue macrophage line. The data set can be described thus: LDH release cytotoxicity assay, J774A.1. In kind it is cell-based. The method, then:
as §1

Data set [3] is described as follows: Aldolization of 4a with atherosclerotic artery and blood fractions (1H NMR). The data set is classed as in vitro ADME, human. The procedure: Aldolization of secoketoaldehyde 4a with atherosclerotic artery and blood fractions. […] To this solution was added either a) atherosclerotic artery (2.1 mg) that had been homogenized in PBS (1 ml) in a tissue homogenizer and then lyophilized to dryness, b) lyophilized human blood (1 ml), c) lyophilized human plasma (1 ml) or d) PBS lyophilized (1 ml). At time points samples were removed and analyzed by ^1H NMR vide supra.

The nature of data set [4]: Aldolization of ketoaldehyde 4a with amino acids (1H NMR). The data set is classed as physicochemical. The method, then:
Aldolization of ketoaldehyde 4a with amino acids. […] To this solution was added 1 equivalent of either: a) L-proline, b) glycine, c) L-lysine hydrochloride or d) L-lysine ethyl ester dihydrochloride. At time points the samples were analyzed by ^1H NMR.

The target of the next data set is LDL / apoB-100 (Homo sapiens, UniProt P04114). Put plainly: Circular dichroism of LDL secondary structure. Conditions: LDL 100 μg/ml with compound 10 μM, PBS pH 7.4, 37° C. Background: Circular dichroism is the unequal absorption of left and right circularly polarised light.
LDL / apoB-100, sequence (P04114 28-4563, species assumed): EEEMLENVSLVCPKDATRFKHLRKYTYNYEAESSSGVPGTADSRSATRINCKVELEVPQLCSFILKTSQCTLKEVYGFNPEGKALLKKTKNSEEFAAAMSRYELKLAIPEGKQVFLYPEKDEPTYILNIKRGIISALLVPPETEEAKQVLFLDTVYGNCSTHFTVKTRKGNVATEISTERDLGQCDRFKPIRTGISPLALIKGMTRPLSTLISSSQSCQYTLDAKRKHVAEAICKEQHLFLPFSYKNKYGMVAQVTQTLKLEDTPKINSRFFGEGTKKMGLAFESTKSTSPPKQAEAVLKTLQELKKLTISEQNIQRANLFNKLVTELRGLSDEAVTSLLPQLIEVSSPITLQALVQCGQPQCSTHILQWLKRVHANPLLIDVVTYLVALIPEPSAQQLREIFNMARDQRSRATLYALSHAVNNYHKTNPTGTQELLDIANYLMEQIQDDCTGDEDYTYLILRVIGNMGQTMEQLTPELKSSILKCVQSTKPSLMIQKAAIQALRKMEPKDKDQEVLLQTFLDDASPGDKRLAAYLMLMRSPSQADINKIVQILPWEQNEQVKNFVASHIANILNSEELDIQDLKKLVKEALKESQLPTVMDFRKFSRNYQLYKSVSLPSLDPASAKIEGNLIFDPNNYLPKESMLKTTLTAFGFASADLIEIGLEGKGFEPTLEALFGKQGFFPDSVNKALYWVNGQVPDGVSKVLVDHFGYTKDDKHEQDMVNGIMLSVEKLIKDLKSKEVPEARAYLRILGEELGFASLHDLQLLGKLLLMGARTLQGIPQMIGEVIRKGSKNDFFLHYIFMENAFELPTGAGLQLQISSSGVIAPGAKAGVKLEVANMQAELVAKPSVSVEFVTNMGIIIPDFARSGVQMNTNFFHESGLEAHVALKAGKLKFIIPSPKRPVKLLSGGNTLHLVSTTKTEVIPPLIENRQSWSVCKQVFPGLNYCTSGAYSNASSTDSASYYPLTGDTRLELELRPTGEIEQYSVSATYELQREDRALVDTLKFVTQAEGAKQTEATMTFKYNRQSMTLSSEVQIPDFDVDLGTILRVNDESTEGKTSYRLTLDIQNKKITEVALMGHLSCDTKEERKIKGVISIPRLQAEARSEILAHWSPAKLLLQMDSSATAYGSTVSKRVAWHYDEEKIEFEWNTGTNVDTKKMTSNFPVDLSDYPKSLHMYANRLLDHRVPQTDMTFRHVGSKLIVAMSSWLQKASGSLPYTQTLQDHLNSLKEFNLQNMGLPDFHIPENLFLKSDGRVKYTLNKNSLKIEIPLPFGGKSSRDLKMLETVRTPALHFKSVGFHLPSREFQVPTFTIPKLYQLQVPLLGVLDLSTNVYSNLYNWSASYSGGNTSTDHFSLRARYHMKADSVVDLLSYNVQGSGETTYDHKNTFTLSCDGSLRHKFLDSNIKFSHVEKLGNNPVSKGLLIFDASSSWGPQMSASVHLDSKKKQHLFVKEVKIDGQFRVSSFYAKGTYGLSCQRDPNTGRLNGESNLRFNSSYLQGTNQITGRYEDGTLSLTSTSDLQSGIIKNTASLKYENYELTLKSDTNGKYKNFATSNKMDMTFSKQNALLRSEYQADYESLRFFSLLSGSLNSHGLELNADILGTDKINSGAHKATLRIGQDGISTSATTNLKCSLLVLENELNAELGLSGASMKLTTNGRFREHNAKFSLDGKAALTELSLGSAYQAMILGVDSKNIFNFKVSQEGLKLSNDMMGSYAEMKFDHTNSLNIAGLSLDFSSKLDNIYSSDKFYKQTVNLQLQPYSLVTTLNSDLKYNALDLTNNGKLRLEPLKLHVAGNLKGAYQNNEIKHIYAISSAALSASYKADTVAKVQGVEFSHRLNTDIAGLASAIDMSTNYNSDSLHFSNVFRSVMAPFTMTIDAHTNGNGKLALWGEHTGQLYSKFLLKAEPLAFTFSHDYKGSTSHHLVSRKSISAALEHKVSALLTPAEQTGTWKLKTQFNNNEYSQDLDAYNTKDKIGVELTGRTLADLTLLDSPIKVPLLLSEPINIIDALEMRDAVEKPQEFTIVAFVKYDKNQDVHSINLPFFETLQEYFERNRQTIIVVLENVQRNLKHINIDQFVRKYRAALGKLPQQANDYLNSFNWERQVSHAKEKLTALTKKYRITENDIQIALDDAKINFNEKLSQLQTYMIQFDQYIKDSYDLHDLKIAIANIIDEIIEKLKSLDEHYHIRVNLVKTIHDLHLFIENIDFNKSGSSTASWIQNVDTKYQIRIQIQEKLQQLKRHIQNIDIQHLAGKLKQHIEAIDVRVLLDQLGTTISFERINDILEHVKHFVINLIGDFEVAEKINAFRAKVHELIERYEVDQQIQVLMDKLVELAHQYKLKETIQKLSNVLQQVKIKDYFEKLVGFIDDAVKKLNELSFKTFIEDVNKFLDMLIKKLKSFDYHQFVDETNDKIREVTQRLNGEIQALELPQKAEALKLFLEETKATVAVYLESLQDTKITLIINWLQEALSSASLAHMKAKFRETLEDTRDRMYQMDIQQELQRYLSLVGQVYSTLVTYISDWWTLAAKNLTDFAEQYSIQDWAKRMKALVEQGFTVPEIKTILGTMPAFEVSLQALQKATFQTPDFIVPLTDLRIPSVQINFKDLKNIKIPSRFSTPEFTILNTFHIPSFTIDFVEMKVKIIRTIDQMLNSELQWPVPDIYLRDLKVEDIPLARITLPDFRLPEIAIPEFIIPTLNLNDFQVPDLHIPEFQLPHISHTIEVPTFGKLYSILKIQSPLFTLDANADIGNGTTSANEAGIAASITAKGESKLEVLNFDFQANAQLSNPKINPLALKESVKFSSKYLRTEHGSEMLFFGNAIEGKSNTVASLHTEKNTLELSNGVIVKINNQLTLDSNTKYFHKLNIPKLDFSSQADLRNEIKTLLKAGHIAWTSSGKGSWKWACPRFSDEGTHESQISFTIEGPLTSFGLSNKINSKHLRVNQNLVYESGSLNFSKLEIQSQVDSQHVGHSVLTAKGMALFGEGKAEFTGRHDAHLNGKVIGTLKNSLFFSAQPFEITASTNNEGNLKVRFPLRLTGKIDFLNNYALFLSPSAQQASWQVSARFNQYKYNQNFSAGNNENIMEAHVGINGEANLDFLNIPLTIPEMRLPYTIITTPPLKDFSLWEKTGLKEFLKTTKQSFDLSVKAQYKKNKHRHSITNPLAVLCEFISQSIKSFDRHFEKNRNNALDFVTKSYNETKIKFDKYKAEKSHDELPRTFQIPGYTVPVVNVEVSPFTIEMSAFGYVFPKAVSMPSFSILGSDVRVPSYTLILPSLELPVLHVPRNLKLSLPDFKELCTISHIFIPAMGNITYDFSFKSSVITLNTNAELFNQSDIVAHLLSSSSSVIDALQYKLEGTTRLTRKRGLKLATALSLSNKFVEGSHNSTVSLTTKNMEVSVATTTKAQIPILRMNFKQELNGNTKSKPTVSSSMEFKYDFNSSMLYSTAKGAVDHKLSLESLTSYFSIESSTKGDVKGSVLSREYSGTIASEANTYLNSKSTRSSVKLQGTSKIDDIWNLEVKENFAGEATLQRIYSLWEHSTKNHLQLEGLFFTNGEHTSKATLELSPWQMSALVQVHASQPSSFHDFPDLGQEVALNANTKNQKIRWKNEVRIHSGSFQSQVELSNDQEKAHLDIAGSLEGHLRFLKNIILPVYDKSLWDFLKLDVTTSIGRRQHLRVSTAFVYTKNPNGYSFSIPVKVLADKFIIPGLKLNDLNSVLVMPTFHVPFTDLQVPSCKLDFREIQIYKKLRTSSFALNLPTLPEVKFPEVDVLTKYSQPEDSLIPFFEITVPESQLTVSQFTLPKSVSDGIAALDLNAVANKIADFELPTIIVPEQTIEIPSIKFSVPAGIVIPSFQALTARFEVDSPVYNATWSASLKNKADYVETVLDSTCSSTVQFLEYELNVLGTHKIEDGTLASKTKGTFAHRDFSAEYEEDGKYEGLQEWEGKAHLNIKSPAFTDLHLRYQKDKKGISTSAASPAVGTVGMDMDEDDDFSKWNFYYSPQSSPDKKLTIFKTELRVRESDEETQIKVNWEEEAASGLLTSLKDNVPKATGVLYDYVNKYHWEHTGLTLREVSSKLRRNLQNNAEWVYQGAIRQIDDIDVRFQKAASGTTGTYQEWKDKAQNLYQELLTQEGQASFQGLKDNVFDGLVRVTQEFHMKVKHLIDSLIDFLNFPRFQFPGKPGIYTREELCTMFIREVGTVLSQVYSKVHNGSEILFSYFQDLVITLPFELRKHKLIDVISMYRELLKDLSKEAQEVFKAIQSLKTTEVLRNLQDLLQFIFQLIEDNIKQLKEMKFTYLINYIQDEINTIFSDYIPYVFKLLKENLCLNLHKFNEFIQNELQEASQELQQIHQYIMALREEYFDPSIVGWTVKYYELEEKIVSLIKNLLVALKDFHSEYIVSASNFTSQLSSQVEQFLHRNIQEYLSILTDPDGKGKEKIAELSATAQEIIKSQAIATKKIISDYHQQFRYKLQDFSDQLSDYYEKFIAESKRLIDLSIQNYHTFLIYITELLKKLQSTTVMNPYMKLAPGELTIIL
Data set [5] concerns T-lymphocyte cell line (Jurkat E6.1). The data set can be described thus: LDH release cytotoxicity assay, Jurkat. In kind it is cell-based. To be noted: Homo sapiens; Jurkat E6.1; LDH release, 0-100 μM, 18 h. The procedure: as §1, with “Macintosh. […]” for “Macintosh.”
A short description of data set [6]: Loss of extractable 5a from stored plasma. To be noted: preliminary investigations. The procedure: Plasma samples were obtained from patients (n=8) who were scheduled to undergo carotid endarterectomy within 24 h. […] Control plasma samples were obtained from random patients (n=15) attending a general medical clinic and were analyzed 7 days after collection. In a typical procedure, plasma in EDTA (1 ml) was washed with dichloromethane (DCM, 3×1 mL). The combined organic fractions were evaporated in vacuo. The residue was dissolved in methanol (0.9 mL) and a solution of 2,4-dinitrophenyl hydrazine (100 μL, 0.01 M, Lancaster) and 1N HCl in ethanol was added. Nitrogen was bubbled through the solution for 5 min and then the solution was stirred for 2 h. The resultant solution was filtered through a 0.22 μm filter and the filtrate was analyzed by the HPLC assay vide supra.

The term IC50 denotes the concentration at which inhibition is half-maximal.

Molecules are shown by their SMILES. Where two headings read alike, the source gives them in different places.

Description for LDL / apoB-100: Circular dichroism. […] Spectra were recorded in the peptidic range (200-260 nm). To increase the signal-to-noise ratio, multiple spectra (three) were averaged for each measurement.

Regarding `CC(C)CCC[C@@H](C)[C@H]1CCC2C(CC=O)C([C@@]3(C)CC[C@H](O)CC3=O)CC[C@@]21C` (stereo partly drawn) [4a, 3β-Hydroxy-5-oxo-5,6-secocholestan-6-al], the IC50 in data set [1] (MH-S, LDH release, 0-100 μM, read-out: IC50) was 11.2 ± 1.2 µM; in data set [2] (J774A.1, LDH release, 0-100 μM, 18 h, read-out: IC50) it was 15.6 ± 2.1 µM. In addition, the “conversion of 4a into 5a” value is on record as “complete conversion” in data set [3] (extracts from atheromatous arteries, 22 h); “complete conversion” in data set [3] (plasma, 15 h); “complete conversion” in data set [3] (serum, 15 h); “complete conversion” in data set [3] (whole blood, 15 h); “complete conversion” in data set [4] (Gly, 24 h); 62% in data set [4] (L-Lys(OEt).2HCl, 100 h). In addition, the “conversion of 4a into 5a” value in data set [4] (L-Lys.HCl, 24 h) is “complete conversion”; in data set [4] (L-Pro, 2 h) it was “complete conversion”. Further, the “aldolization of 4a” value in data set [3] (lyophilized PBS) is reported as “no aldolization”; in data set [4] (DMSO-d6 (800 μl) and D2O (80 μl) alone), “no aldolization”. Besides, the “random coil of LDL” value on LDL / apoB-100 is on record as approximately 39±2%. Besides, the “α helical structure of LDL” value on LDL / apoB-100 is reported as approximately 23±5%.

Turning to `CC(C)CCC[C@@H](C)[C@H]1CCC2C3C(CC[C@@]21C)[C@@]1(C)CC[C@H](O)C[C@@]1(O)[C@@H]3C=O` (stereo partly drawn) [5a, 3β-Hydroxy-5β-hydroxy-B-norcholestane-6β-carboxaldehyde], the IC50 in data set [1] (Mus musculus, Macrophage) was 13.6 ± 1.1 µM; in data set [2] (Mus musculus, J774.A1, 18 h), 26.1 ± 2.8 µM; in data set [5], 12.6 ± 1.9 µM. Moreover, on LDL / apoB-100, the “random coil of LDL” value stood at 32±4%. For the same molecule, the “α helical structure of LDL” value at LDL / apoB-100 is reported as approximately 20±2%. For the same molecule, the “decrease of amount that can be extracted from plasma” value in data set [6] is “about 5 % per day”.

The values above are taken from patent US20070059242A1, “METHODS TO IDENTIFY THERAPEUTIC AGENTS” (priority 2005, published 2007).
